Assay results published in publication PMC3553014, “Albumin Stimulates the Activity of the Human UDP-Glucuronosyltransferases 1A7, 1A8, 1A10, 2A1 and 2B15, but the Effects Are Enzyme and Substrate Dependent” (PLoS ONE, 2013).
Several values for one entry are separate records, joined by “and”; a condition that tells them apart may be missing. Identical values can stand only once. Like-named read-outs stand apart in the source and are kept apart here.

What was measured:
[1] = molecular target: T1, UGT1A6 (Homo sapiens, UniProt P19224); test: UGT1A6-catalyzed glucuronidation, enzyme kinetics
T1 sequence (P19224 27-532): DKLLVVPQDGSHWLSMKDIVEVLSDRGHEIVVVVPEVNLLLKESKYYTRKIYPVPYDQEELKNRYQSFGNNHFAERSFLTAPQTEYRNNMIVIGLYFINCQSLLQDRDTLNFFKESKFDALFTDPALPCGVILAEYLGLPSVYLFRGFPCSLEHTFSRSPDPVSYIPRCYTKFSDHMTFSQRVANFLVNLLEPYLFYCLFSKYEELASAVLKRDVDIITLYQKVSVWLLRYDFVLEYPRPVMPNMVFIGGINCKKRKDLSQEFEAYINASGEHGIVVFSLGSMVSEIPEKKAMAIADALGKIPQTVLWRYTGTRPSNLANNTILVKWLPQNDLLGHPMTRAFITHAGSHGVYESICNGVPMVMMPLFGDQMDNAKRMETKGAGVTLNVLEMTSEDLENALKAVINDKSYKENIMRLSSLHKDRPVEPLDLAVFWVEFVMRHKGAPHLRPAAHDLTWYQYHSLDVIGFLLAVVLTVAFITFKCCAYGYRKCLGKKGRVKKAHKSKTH
Experimental: (§1) Recombinant human UGTs 1A1, 1A6, 1A7, 1A8, 1A10, 2A1, 2B4, 2B7 and 2B17 were expressed as His-tagged proteins in baculovirus-infected insect cells as described previously [14]. […] Protein concentrations were determined by the BCA method (Pierce Biotechnology, Rockford, IL, USA).
(§2) The protein concentrations and incubation times for the enzyme kinetic assays were selected based on preliminary assays in order to ensure that the product formation was within the linear range with respect to both protein concentration and time, and that the substrate consumption during the reaction was less than 10%. The initial velocity measurements were performed in either duplicates or triplicates and they are presented as the average values and S.E.
(§3) The glucuronidation rates by recombinant enzymes are reported as “expression normalized” values. The relative expression level of each recombinant UGT that was produced in our laboratory was determined using immunoblotting, as previously described [14], [19]. The dot blot assays were performed in triplicate and the average value was used for normalization. […] The “expression normalized” glucuronidation rates were calculated by dividing the measured glucuronidation rates with relative expression level of the each given recombinant UGT.
(§4) In assays containing BSA, the total concentrations of substrate were corrected according to the measured drug binding to BSA, under the specific conditions of each glucuronidation assay. The statistical significance of the difference in enzyme kinetics parameters upon BSA addition was tested with extra sum-of-squares F-test (included in the GraphPad software, [20]. The initial glucuronidation rates were fitted to the following equations:

[2] = molecular target: T2, UGT1A8 (Homo sapiens, UniProt Q9HAW9); test: UGT1A8-catalyzed glucuronidation, enzyme kinetics
T2 sequence (Q9HAW9 26-530): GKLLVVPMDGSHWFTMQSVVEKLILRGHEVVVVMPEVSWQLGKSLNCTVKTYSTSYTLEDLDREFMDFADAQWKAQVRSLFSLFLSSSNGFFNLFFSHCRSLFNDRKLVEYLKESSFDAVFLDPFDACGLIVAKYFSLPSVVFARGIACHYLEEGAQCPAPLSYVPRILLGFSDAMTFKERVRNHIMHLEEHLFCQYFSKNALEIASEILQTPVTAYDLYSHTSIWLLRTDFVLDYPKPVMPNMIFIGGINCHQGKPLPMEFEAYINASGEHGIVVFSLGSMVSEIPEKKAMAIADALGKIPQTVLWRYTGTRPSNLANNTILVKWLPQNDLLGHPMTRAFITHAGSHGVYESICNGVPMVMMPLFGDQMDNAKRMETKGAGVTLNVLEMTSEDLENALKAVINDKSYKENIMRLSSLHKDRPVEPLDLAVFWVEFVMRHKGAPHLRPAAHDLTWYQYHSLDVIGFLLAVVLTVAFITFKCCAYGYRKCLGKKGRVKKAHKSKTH
Experimental: as §1, §2, §3
In assays containing BSA, the total concentrations of substrate were corrected according to the measured drug binding to BSA, under the specific conditions of each glucuronidation assay.

[3] = molecular target: T3, UGT2B17 (Homo sapiens, UniProt O75795)
T3 sequence (O75795 24-530): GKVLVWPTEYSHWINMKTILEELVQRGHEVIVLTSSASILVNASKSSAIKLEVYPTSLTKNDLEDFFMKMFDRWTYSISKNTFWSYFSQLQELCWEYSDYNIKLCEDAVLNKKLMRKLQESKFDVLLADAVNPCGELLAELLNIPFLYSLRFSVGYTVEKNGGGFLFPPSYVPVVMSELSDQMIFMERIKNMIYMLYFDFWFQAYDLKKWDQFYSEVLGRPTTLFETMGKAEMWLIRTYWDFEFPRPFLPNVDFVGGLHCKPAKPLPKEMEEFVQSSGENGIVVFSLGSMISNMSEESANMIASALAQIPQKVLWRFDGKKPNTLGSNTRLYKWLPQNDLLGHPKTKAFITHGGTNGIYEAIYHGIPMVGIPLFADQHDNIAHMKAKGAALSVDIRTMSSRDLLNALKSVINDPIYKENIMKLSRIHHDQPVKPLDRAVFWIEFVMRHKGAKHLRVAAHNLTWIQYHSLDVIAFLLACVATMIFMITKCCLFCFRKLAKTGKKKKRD
Experimental: as §1, §2, §3, §4

[4] = molecular target: T4, UGT1A1 (Homo sapiens, UniProt P22309); test: UGT1A1-catalyzed glucuronidation, enzyme kinetics
T4 sequence (P22309 26-533): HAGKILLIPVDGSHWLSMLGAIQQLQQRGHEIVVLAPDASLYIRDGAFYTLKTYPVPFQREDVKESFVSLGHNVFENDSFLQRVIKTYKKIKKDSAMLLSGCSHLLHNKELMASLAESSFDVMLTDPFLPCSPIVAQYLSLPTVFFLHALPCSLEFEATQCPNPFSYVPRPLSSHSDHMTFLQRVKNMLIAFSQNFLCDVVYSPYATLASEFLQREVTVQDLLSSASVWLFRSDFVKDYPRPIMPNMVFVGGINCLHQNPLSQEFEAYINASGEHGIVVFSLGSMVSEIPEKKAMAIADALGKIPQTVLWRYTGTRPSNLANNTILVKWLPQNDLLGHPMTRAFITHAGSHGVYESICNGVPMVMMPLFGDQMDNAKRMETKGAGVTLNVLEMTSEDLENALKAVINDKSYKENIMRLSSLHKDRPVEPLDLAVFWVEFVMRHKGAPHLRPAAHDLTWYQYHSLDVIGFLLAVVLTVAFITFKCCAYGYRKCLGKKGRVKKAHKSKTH
Experimental: as §1, §2, §3, §4

[5] = molecular target: T5, BSA (Bos taurus, UniProt P02769); test: in vitro; details: bovine
[6] = molecular target: T5, BSA; set-up: purchased Sigma-Aldrich (St. Louis, MO, USA); details: 2% BSA; 25 (Walsky et al. 2012); cited from earlier work
[7] = Drug binding to control insect cell membranes by RED; details: 0.2 mg/mL total protein in the membrane
[8] = substrate: Oc1cccc2ccccc12; test: purified protein, by the assay type; details: pH 7.4
[9] = substrate: Cc1cc(=O)oc2cc(O)ccc12; test: purified protein, by the assay type; details: pH 7.4
[10] = substrate: Oc1ccc2cc[nH]c2c1; test: not read; details: other: No BSA, pH 7.4
Experimental: as §1, §2, §3, §4

[11] = substrate: Cc1cc(=O)oc2cc(O)ccc12; test: not read; details: other: No BSA, pH 7.4
Experimental: as §1, §2, §3, §4

T5 sequence (P02769 25-607): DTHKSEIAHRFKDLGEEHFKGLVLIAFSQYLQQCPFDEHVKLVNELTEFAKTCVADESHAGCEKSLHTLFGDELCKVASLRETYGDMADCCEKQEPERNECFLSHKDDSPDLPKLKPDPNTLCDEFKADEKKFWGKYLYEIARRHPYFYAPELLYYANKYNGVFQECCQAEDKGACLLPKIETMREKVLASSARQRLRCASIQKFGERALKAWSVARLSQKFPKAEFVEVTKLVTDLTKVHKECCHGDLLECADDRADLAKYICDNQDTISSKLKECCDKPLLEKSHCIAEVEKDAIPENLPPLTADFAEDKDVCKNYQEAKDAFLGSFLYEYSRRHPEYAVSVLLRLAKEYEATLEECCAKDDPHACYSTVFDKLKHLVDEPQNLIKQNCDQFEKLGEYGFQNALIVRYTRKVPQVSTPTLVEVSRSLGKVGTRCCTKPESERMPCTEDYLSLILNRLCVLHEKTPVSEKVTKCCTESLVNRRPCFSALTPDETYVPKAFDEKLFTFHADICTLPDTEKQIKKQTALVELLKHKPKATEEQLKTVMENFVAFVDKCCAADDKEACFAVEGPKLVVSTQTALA

Oc1cccc2ccccc12 [1-Naphthol, 1-naphthol]
K m or S 50 ± S.E. ([1]; 0.1% BSA, substrate concentration corrected for binding to BSA): 5.25±0.23 ^***(4.78–5.72) µM | K m or S 50 ± S.E. ([1]; No BSA): 8.07±0.48(7.08–9.06) µM | V max ± S.E. ([1]; No BSA, expression level-normalized): 6.7±0.1(6.47–6.94) nmol•min^–1•mg^–1 | K m or S 50 ± S.E. [2]: 91.6±6.6(78.0–105.3) µM and 105±16(73–137) µM | V max ± S.E. [2]: 2.5±0.1(2.3–2.7) nmol•min^–1•mg^–1 | K m or S 50 ± S.E. [3]: 540±26(485–595) µM and 484±27(427–541) µM | V max ± S.E. [3]: 0.28±0.01(0.26–0.31) nmol•min^–1•mg^–1 | K m or S 50 ± S.E. [4]: 101±11(78–123) µM and 81.6±5.1(71.0–92.1) µM | V max ± S.E. [4]: 0.11±0.01(0.10–0.13) nmol•min^–1•mg^–1

C[C@]12CC[C@@H]3c4ccc(O)cc4CC[C@H]3[C@@H]1CC[C@@H]2O [17β-Estradiol, 17β-estradiol]
V max ± S.E. [2]: 0.020±0.0003(0.019–0.021) nmol•min^–1•mg^–1 | K m or S 50 ± S.E. ([2]; 0.1% BSA, substrate concentration corrected for binding to BSA, 17β-estradiol: 3-glucuronide formation): 4.70±0.62 ^**(3.42–5.99) µM | fraction unbound at 8 h [5]: 0.48 ± 0.01 | V max ± S.E. [3]: 0.013±0.0002(0.0125–0.0132) nmol•min^–1•mg^–1 | f u (unbound fraction) [6]: 0.04 | K m or S 50 ± S.E. [4]: 7.84±1.62(4.48–11.21) µM | K m or S 50 ± S.E. ([4]; 0.1% BSA, substrate concentration corrected for binding to BSA, estradiols: 3-glucuronide formation): 9.06±1.14(6.70–11.42) µM | binding to control insect cell membrane [7]: negligible

B1: UGT2B17 (Homo sapiens) (protein)
chain: T3 sequence (O75795 24-530)
K0.5 [8]: 540±26(485–595) uM | K0.5 [9]: 377±42(291–463) uM | Vmax [9]: 5e-05 µmol/min/mg

B2: UGT2A1 (Homo sapiens) (protein)
chain: GNVLIWPMEGSHWLNVKIIIDELIKKEHNVTVLVASGALFITPTSNPSLTFEIYKVPFGKERIEGVIKDFVLTWLENRPSPSTIWRFYQEMAKVIKDFHMVSQEICDGVLKNQQLMAKLKKSKFEVLVSDPVFPCGDIVALKLGIPFMYSLRFSPASTVEKHCGKVPYPPSYVPAVLSELTDQMSFTDRIRNFISYHLQDYMFETLWKSWDSYYSKALGGLLLCCPGWSAVADLGSLQPLLPGFKRFSRLSLHCSWDYRLPAGRPTTLCETMGKAEIWLIRTYWDFEFPRPYLPNFEFVGGLHCKPAKPLPKVLWRYKGKKPATLGNNTQLFDWIPQNDLLGHPKTKAFITHGGTNGIYEAIYHGVPMVGVPMFADQPDNIAHMKAKGAAVEVNLNTMTSVDLLSALRTVINEPSYKENAMRLSRIHHDQPVKPLDRAVFWIEFVMRHKGAKHLRVAAHDLTWFQYHSLDVIGFLLVCVTTAIFLVIQCCLFSCQKFGKIGKKKKRE
K0.5 [10]: 1474±121(1223–1724) µM | Vmax [10]: 0.00079 µmol/min/mg | K0.5 [11]: 48.1±4.8(38.2–57.9) µM | Vmax [11]: 0.0021 µmol/min/mg

B3: UGT2B4 (Homo sapiens) (protein)
chain: GKVLVWPTEFSHWMNIKTILDELVQRGHEVTVLASSASISFDPNSPSTLKFEVYPVSLTKTEFEDIIKQLVKRWAELPKDTFWSYFSQVQEIMWTFNDILRKFCKDIVSNKKLMKKLQESRFDVVLADAVFPFGELLAELLKIPFVYSLRFSPGYAIEKHSGGLLFPPSYVPVVMSELSDQMTFIERVKNMIYVLYFEFWFQIFDMKKWDQFYSEVLGRPTTLSETMAKADIWLIRNYWDFQFPHPLLPNVEFVGGLHCKPAKPLPKEMEEFVQSSGENGVVVFSLGSMVSNTSEERANVIASALAKIPQKVLWRFDGNKPDTLGLNTRLYKWIPQNDLLGHPKTRAFITHGGANGIYEAIYHGIPMVGVPLFADQPDNIAHMKAKGAAVSLDFHTMSSTDLLNALKTVINDPLYKENAMKLSRIHHDQPVKPLDRAVFWIEFVMRHKGAKHLRVAAHDLTWFQYHSLDVTGFLLACVATVIFIITKCLFCVWKFVRTGKKGKRD
K0.5 [8]: 210±12(186–235) uM | K0.5 [9]: 298±43(210–387) uM
